Measurements: patent US20050282743A1, “Molecular interactions in cells” (Arbor Vita Corporation, priority 2001, published 2005)
Peptide text beside a SMILES is read from it. * marks the point of attachment. Biotin = O=C1N[C@H]2[C@H](CS[C@H]2CCCCC(=O)*)N1

Molecular target: T1, PDZ protein (GST-PDZ fusion) (Homo sapiens, UniProt Q5TCQ9)
T1 construct: made in house; host or cells: E. coli (DH5alpha, BL21 or JM109)
T1 sequence (Q5TCQ9 1-1481): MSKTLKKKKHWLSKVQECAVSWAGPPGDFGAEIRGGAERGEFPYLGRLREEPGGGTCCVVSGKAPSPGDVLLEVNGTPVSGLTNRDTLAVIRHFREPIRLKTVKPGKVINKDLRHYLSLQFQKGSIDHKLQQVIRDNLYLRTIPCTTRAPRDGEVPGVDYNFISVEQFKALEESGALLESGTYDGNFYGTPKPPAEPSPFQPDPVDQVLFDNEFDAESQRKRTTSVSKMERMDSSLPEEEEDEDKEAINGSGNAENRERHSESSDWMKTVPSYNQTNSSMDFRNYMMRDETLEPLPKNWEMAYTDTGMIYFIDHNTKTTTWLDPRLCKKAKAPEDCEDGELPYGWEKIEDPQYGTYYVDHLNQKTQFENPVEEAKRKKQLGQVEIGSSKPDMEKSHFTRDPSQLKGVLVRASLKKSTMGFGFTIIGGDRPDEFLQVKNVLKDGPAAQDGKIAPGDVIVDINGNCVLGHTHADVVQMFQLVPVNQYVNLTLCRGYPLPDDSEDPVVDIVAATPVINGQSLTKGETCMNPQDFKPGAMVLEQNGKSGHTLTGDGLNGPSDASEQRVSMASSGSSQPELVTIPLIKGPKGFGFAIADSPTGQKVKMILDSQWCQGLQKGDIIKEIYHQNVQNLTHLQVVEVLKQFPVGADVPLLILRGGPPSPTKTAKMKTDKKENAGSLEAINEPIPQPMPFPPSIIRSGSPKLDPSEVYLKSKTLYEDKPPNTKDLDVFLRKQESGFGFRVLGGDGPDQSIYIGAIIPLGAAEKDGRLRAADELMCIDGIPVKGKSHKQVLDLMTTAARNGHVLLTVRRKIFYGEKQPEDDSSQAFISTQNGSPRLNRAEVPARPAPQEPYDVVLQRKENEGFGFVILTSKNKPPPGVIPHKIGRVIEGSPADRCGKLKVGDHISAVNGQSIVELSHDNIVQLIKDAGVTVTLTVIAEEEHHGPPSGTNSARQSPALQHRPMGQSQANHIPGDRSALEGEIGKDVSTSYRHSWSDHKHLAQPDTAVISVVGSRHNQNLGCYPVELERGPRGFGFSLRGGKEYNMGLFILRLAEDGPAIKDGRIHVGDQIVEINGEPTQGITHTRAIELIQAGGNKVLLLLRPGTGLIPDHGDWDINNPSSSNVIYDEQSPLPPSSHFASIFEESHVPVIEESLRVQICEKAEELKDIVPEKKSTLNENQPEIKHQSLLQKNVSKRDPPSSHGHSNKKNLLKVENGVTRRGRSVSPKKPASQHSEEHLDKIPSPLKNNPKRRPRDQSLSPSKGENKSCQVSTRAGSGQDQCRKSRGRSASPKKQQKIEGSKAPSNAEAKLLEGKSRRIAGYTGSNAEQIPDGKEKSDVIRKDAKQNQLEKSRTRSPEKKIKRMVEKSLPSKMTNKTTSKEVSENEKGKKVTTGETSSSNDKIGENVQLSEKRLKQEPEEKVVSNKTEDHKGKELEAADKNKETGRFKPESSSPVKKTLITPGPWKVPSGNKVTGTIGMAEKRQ
Assay: G' assay (10 uM PL peptide), results of TABLE 7 and TABLE 12
Type: binding
How it was run: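 Biotinylated PL peptides at 10 uM (vs 20 uM in G^0 assay) bound to GST-PDZ fusions; PDZ protein at 5 ug/ml unless another concentration listed. Bound peptide read as A450 nm, classified 0–5 (0 = A450 0; 5 = A450 >4 repeated).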

Classification (PDZ KIAA1634, PDZ Domain 2) | Compound | Classification (PDZ KIAA1634, PDZ Domain 1) | further results
5 (A450 nm of 4 more than 2× repeated) | CC(C)C[C@H](NC(=O)[C@H](CC(C)C)NC(=O)[C@@H](NC(=O)[C@H](CC(=O)O)NC(=O)CCCC[C@@H]1SC[C@@H]2NC(=O)N[C@@H]21)[C@@H](C)O)C(=O)N[C@@H](CC(C)C)C(=O)N[C@H](C(=O)N[C@@H](CCC(=O)O)C(=O)N[C@@H](CC(N)=O)C(=O)N[C@@H](CCC(=O)O)C(=O)NCC(=O)N[C@@H](CC(=O)O)C(=O)N[C@@H](CCCCN)C(=O)N[C@H](C(=O)N[C@@H](CCC(=O)O)C(=O)N[C@@H](CCC(=O)O)C(=O)N[C@@H](CCC(N)=O)C(=O)N[C@H](C(=O)N[C@@H](CO)C(=O)N[C@@H](Cc1ccc(O)cc1)C(=O)N[C@H](C(=O)O)C(C)C)C(C)C)[C@@H](C)O)[C@@H](C)O [5H2B_HUMAN] (Biotin-DTLLLTENEGDKTEEQVSYV-OH; C-terminus assumed) |  | 
 | CC[C@H](C)[C@H](NC(=O)[C@H](CCCCN)NC(=O)[C@@H](NC(=O)[C@H](CO)NC(=O)[C@@H]1CCCN1C(=O)[C@H](Cc1ccccc1)NC(=O)[C@@H](NC(=O)[C@@H](NC(=O)[C@H](CCCNC(=N)N)NC(=O)[C@H](CCC(=O)O)NC(=O)[C@H](CC(C)C)NC(=O)[C@H](CC(C)C)NC(=O)[C@H](CC(C)C)NC(=O)[C@@H](NC(=O)CNC(=O)[C@@H](NC(=O)CCCC[C@@H]1SC[C@@H]2NC(=O)N[C@@H]21)C(C)C)[C@@H](C)O)C(C)C)[C@@H](C)CC)C(C)C)C(=O)N[C@@H](C)C(=O)N[C@H](C(=O)N[C@@H](CC(C)C)C(=O)N[C@H](C(=O)O)C(C)C)[C@@H](C)O [Adenovirus E4 Type9] |  | Classification (PDZ KIAA1634, PDZ Domain 1, PL peptide 10 uM): 5 (A450 nm of 4 more than 2× repeated); Classification (PDZ KIAA1634, PDZ Domain 2, Protein Optimal Conc 5): 5 (A450 nm of 4 more than 2× repeated); Classification (PDZ KIAA1634, PDZ Domain 4, Protein Optimal Conc 5): 4 (A450 nm 3-4)
1 (A450 nm 0-1) | CC[C@H](C)[C@H](NC(=O)[C@H](CCC(=O)O)NC(=O)[C@H](CC(N)=O)NC(=O)[C@H](CCCNC(=N)N)NC(=O)[C@H](Cc1ccccc1)NC(=O)[C@H](CC(N)=O)NC(=O)[C@H](CO)NC(=O)[C@H](CC(N)=O)NC(=O)[C@H](CCC(=O)O)NC(=O)[C@H](CO)NC(=O)[C@H](CC(=O)O)NC(=O)[C@H](CO)NC(=O)[C@@H](NC(=O)[C@@H](NC(=O)[C@H](CC(=O)O)NC(=O)[C@H](CCCCN)NC(=O)CCCC[C@@H]1SC[C@@H]2NC(=O)N[C@@H]21)[C@@H](C)CC)[C@@H](C)O)C(=O)N[C@@H](CCC(N)=O)C(=O)N[C@@H](CO)C(=O)N[C@@H](CC(C)C)C(=O)N[C@H](C(=O)O)C(C)C [CD95] (Biotin-KDITSDSENSNFRNEIQSLV-OH; C-terminus assumed) | 1 (A450 nm 0-1) | Classification (PDZ KIAA1634, PDZ Domain 4): 1 (A450 nm 0-1)
 | CC[C@H](C)[C@H](NC(=O)[C@H](CC(=O)O)NC(=O)[C@H](CCC(=O)O)NC(=O)[C@H](CCCNC(=N)N)NC(=O)[C@@H](NC(=O)CCCC[C@@H]1SC[C@@H]2NC(=O)N[C@@H]21)[C@@H](C)O)C(=O)N[C@@H](Cc1ccc(O)cc1)C(=O)N[C@H](C(=O)N[C@@H](CC(N)=O)C(=O)N[C@@H](Cc1ccc(O)cc1)C(=O)N1CCC[C@H]1C(=O)N[C@H](C(=O)N[C@@H](Cc1ccccc1)C(=O)N[C@@H](CO)C(=O)N[C@@H](CCCNC(=N)N)C(=O)N[C@@H](CCCNC(=N)N)C(=O)N1CCC[C@H]1C(=O)N[C@@H](CCCCN)C(=O)N[C@H](C(=O)N[C@@H](CCCNC(=N)N)C(=O)N[C@H](C(=O)O)C(C)C)[C@@H](C)O)[C@@H](C)O)C(C)C [DNAM-1] (Biotin-TREDIYVNYPTFSRRPKTRV-OH; C-terminus assumed) | 5 (A450 nm of 4 more than 2× repeated) | 
